± gives the standard deviation of the averaged measurements.
System: RD
Assay: relative viability vs DMSO control (72 h) (fraction); higher = more viable cells
Procedure, shortened: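 Serially diluted compound, 2.5 µl from source plates spanning 10 mM to 0.0002 mM, was added 24 h after sarcoma cell lines were seeded in 384-well plates at densities targeting 80–90% confluence. Plates then sat 72 h at 37 °C, 5% CO2, with 0.1% DMSO vehicle and a 5 µM positive control. Relative viability came from ATPLite as percent growth, averaged over up to triplicate wells, and was rescaled with 1 as full and 0 as none.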

Compound | relative viability (0.00017 µM) | relative viability (0.00051 µM) | relative viability (0.00152 µM) | relative viability (0.00457 µM) | relative viability (0.01372 µM) | relative viability (0.04115 µM) | relative viability (0.1235 µM) | relative viability (0.3704 µM) | relative viability (1.111 µM) | relative viability (3.333 µM) | relative viability (10 µM) | relative viability (2 pM) | relative viability (5 pM) | relative viability (15 pM) | relative viability (50 pM) | relative viability (0.00014 µM) | relative viability (0.00041 µM) | relative viability (0.0012 µM) | relative viability (0.0037 µM) | relative viability (0.011 µM) | relative viability (200 fM) | relative viability (600 fM)
CC1(C)CNc2cc(NC(=O)c3cccnc3NCc3ccncc3)ccc21 [Motesanib] | 0.967 ± 0.013 | 0.964 ± 0.041 | 0.973 ± 0.046 | 0.96 ± 0.046 | 0.965 ± 0.04 | 0.989 ± 0.051 | 0.962 ± 0.032 | 0.975 ± 0.028 | 0.996 ± 0.056 | 1.03 ± 0.034 | 0.987 ± 0.066 | – | – | – | – | – | – | – | – | – | – | –
C[C@@H](c1ccc2nccn2c1)n1nnc2ncc(-c3cnn(C)c3)nc21 [Volitinib] | 1.11 ± 0.027 | 1.11 ± 0.036 | 1.14 ± 0.03 | 1.12 ± 0.039 | 1.11 ± 0.022 | 1.1 ± 0.02 | 1.14 ± 0.016 | 1.14 ± 0.023 | 1.09 ± 0.017 | 1.07 ± 0.037 | 1.02 ± 0.037 | – | – | – | – | – | – | – | – | – | – | –
Cc1ccc(NC(=O)c2ccc(CN3CCN(C)CC3)cc2)cc1Nc1nc(-c2cccnc2)cs1 [Masitinib] | 0.967 ± 0.042 | 0.962 ± 0.054 | 0.995 ± 0.039 | 1.03 ± 0.091 | 1.01 ± 0.096 | 0.995 ± 0.091 | 0.995 ± 0.1 | 0.976 ± 0.1 | 0.872 ± 0.074 | 0.587 ± 0.05 | 0.13 ± 0.02 | – | – | – | – | – | – | – | – | – | – | –
C=CC(=O)Nc1cccc(Oc2nc(Nc3ccc(N4CCN(C)CC4)cc3)nc3ccsc23)c1 [Olmutinib] | 1.02 ± 0.051 | 1.04 ± 0.045 | 1.03 ± 0.046 | 1.04 ± 0.032 | 1.03 ± 0.068 | 1.03 ± 0.056 | 1.04 ± 0.051 | 1.07 ± 0.058 | 1.01 ± 0.051 | 0.892 ± 0.08 | 0.174 ± 0.025 | – | – | – | – | – | – | – | – | – | – | –
CC(C)(C)c1cc(NC(=O)Nc2ccc(-c3cn4c(n3)sc3cc(OCCN5CCOCC5)ccc34)cc2)no1 [Quizartinib] | 1.08 ± 0.04 | 1.07 ± 0.036 | 1.08 ± 0.035 | 1.08 ± 0.06 | 1.07 ± 0.035 | 1.06 ± 0.025 | 1.07 ± 0.05 | 1.05 ± 0.055 | 1.04 ± 0.025 | 0.942 ± 0.1 | 0.922 ± 0.065 | – | – | – | – | – | – | – | – | – | – | –
CC(C)NC(=O)C1CCC(n2c(NC(=O)c3ccc(F)cc3)nc3ccc(CN4CCC(C(C)(C)O)CC4)cc32)CC1 (centres undefined) [Belizatinib] | 1.1 ± 0.05 | 1.09 ± 0.06 | 1.08 ± 0.079 | 1.09 ± 0.02 | 1.09 ± 0.041 | 1.09 ± 0.025 | 1 ± 0.014 | 0.844 ± 0.058 | 0.456 ± 0.027 | 0.268 ± 0.0066 | 0.122 ± 0.011 | – | – | – | – | – | – | – | – | – | – | –
Cc1ccc(F)c(NC(=O)Nc2ccc(-c3cccc4[nH]nc(N)c34)cc2)c1 [Linifanib] | 1.07 ± 0.027 | 1.07 ± 0.028 | 1.08 ± 0.039 | 1.124 ± 0.01 | 1.12 ± 0.025 | 1.1 ± 0.033 | 1.14 ± 0.018 | 1.14 ± 0.031 | 1.12 ± 0.031 | 1.11 ± 0.042 | 1.13 ± 0.029 | – | – | – | – | – | – | – | – | – | – | –
Cc1nc(NC(=O)N2CCC[C@H]2C(N)=O)sc1-c1ccnc(C(C)(C)C(F)(F)F)c1 [Alpelisib] | 1.04 ± 0.032 | 1.068 ± 0.0091 | 1.04 ± 0.056 | 1.07 ± 0.041 | 1.05 ± 0.052 | 1.03 ± 0.1 | 0.932 ± 0.045 | 0.851 ± 0.083 | 0.7 ± 0.055 | 0.594 ± 0.024 | 0.557 ± 0.044 | – | – | – | – | – | – | – | – | – | – | –
C[C@]1(O)C[C@@H](c2nc(-c3ccc4ccc(-c5ccccc5)nc4c3)c3c(N)nccn32)C1 [Linsitinib] | 1.03 ± 0.04 | 1.09 ± 0.066 | 1.1 ± 0.047 | 1.06 ± 0.05 | 1.039 ± 0.0018 | 1.03 ± 0.035 | 0.875 ± 0.048 | 0.672 ± 0.0074 | 0.639 ± 0.028 | 0.633 ± 0.02 | 0.568 ± 0.0034 | – | – | – | – | – | – | – | – | – | – | –
C=CC(=O)N1CCC([C@@H]2CCNc3c(C(N)=O)c(-c4ccc(Oc5ccccc5)cc4)nn32)CC1 [Zanubrutinib] | 0.942 ± 0.064 | 0.952 ± 0.048 | 0.964 ± 0.068 | 0.958 ± 0.058 | 0.952 ± 0.046 | 0.96 ± 0.079 | 0.926 ± 0.075 | 0.893 ± 0.11 | 0.876 ± 0.1 | 0.847 ± 0.081 | 0.843 ± 0.06 | – | – | – | – | – | – | – | – | – | – | –
CCc1cc2c(cc1N1CCC(N3CCOCC3)CC1)C(C)(C)c1[nH]c3cc(C#N)ccc3c1C2=O [Alectinib] | 1.12 ± 0.056 | 1.09 ± 0.022 | 1.09 ± 0.051 | 1.1 ± 0.044 | 1.11 ± 0.049 | 1.11 ± 0.038 | 1.13 ± 0.045 | 1.11 ± 0.044 | 1.09 ± 0.024 | 1.054 ± 0.0068 | 1.05 ± 0.037 | – | – | – | – | – | – | – | – | – | – | –
C[C@@H]1CCN(C(=O)CC#N)C[C@@H]1N(C)c1ncnc2[nH]ccc12 [Tofacitinib] | 1.05 ± 0.051 | 1.08 ± 0.064 | 1.1 ± 0.072 | 1.12 ± 0.055 | 1.13 ± 0.068 | 1.13 ± 0.063 | 1.13 ± 0.09 | 1.11 ± 0.029 | 1.14 ± 0.065 | 1.14 ± 0.051 | 1.13 ± 0.056 | – | – | – | – | – | – | – | – | – | – | –
CC[C@H](Nc1ncnc2[nH]cnc12)c1nc2cccc(F)c2c(=O)n1-c1ccccc1 [Idelalisib] | 1.08 ± 0.039 | 1.11 ± 0.035 | 1.12 ± 0.06 | 1.13 ± 0.042 | 1.13 ± 0.036 | 1.13 ± 0.039 | 1.1 ± 0.076 | 1.12 ± 0.062 | 1.1 ± 0.066 | 1.04 ± 0.06 | 0.927 ± 0.029 | – | – | – | – | – | – | – | – | – | – | –
COc1cc2nccc(Oc3ccc(NC(=O)Nc4cc(C)on4)c(Cl)c3)c2cc1OC [Tivozanib] | 1.12 ± 0.07 | 1.12 ± 0.085 | 1.13 ± 0.009 | 1.13 ± 0.068 | 1.135 ± 0.011 | 1.14 ± 0.016 | 1.14 ± 0.05 | 1.18 ± 0.052 | 1.169 ± 0.0077 | 1.17 ± 0.018 | 0.814 ± 0.019 | – | – | – | – | – | – | – | – | – | – | –
COc1cc2c(cc1O)CCN[C@]21CS[C@@H]2c3c(OC(C)=O)c(C)c4c(c3[C@H](COC1=O)N1[C@@H]2[C@H]2c3c(cc(C)c(OC)c3O)C[C@@H]([C@@H]1O)N2C)OCO4 [Trabectedin] | – | – | – | – | – | – | – | – | – | – | – | 1.08 ± 0.055 | 1.08 ± 0.068 | 1.08 ± 0.048 | 1 ± 0.045 | 0.678 ± 0.022 | 0.166 ± 0.14 | 0.158 ± 0.0037 | 0.128 ± 0.0033 | 0.104 ± 0.01 | 1.1 ± 0.043 | 1.08 ± 0.015
N#CC[C@H](C1CCCC1)n1cc(-c2ncnc3[nH]ccc23)cn1 [Ruxolitinib] | 0.965 ± 0.052 | 0.972 ± 0.049 | 0.965 ± 0.041 | 0.977 ± 0.059 | 0.97 ± 0.034 | 0.979 ± 0.044 | 0.973 ± 0.051 | 0.965 ± 0.058 | 0.976 ± 0.056 | 0.976 ± 0.092 | 0.895 ± 0.055 | – | – | – | – | – | – | – | – | – | – | –
Cc1cc(C)c(/C=C2\C(=O)Nc3ccccc32)[nH]1 [Semaxanib] | 1.07 ± 0.053 | 1.05 ± 0.042 | 1.06 ± 0.035 | 1.08 ± 0.016 | 1.08 ± 0.028 | 1.088 ± 0.0067 | 1.09 ± 0.037 | 1.09 ± 0.02 | 1.08 ± 0.023 | 1.06 ± 0.046 | 1 ± 0.041 | – | – | – | – | – | – | – | – | – | – | –
O=C(Cc1ccc(-c2ccc(OCCN3CCOCC3)cc2)cn1)NCc1ccccc1 [KX2-391] | 1.03 ± 0.04 | 1.07 ± 0.055 | 1.08 ± 0.04 | 1.07 ± 0.066 | 1.02 ± 0.022 | 0.633 ± 0.022 | 0.346 ± 0.077 | 0.296 ± 0.015 | 0.304 ± 0.0065 | 0.308 ± 0.027 | 0.286 ± 0.034 | – | – | – | – | – | – | – | – | – | – | –
COc1cc2c(Oc3ccc4[nH]c(C)cc4c3F)ncnc2cc1OCCCN1CCCC1 [Cediranib] | 1.09 ± 0.043 | 1.1 ± 0.058 | 1.09 ± 0.015 | 1.15 ± 0.057 | 1.09 ± 0.076 | 1.13 ± 0.046 | 1.1 ± 0.03 | 1.04 ± 0.06 | 1 ± 0.077 | 1.03 ± 0.13 | 0.962 ± 0.078 | – | – | – | – | – | – | – | – | – | – | –

Reference: the supplement of paper PMC10883282
